# Measurements from patent publication US6784137B2, “6-aryl-4-aminopicolinates and their use as herbicides” (Dow AgroSciences LLC, priority 2001, dated 2004).
# Test system: Crabgrass(large) (Digitaria sanguinalis)
# Test: Preemergence herbicidal activity, soil spray
# Type: in vivo
# Conditions: Digitaria sanguinalis, pre-emergence, 504 h; Table 5; rate 560 ppm; visual score after 3 weeks; read-out: Pre-emergent % control DIGSA
# How it was run: (§1)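 Seeds were sown in a 70:30 loam–sand mix (pH about 8.1, about 1.5% organic matter), and test compound from acetone:DMSO 97:3 stocks, diluted in 99.9:0.1 water:Tween 155, was sprayed evenly on the soil surface before emergence. Pots were held in a greenhouse under an approximate 15 hr photoperiod with top-irrigation.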
row,SMILES,pest or weed control at 560 ppm [%]
1,"COC(=O)c1nc(-c2ccc(F)cc2)cc(N)c1Cl [Compound 43, Methyl 4-amino-3-chloro-6-(4-fluorophenyl)pyridine-2-carboxylate]",100
2,"Nc1cc(-c2ccc(Cl)cc2Cl)nc(C(=O)O)c1Cl [Compound 146, 4-Amino-3-chloro-6-(2,4-dichlorophenyl)pyridine-2-carboxylic acid]",80

# Test system: Pigweed (redroot) (Amaranthus retroflexus)
# Test: Preemergence herbicidal activity, soil spray
# Type: in vivo
# Conditions: Amaranthus retroflexus, pre-emergence, 504 h; Table 5; rate 560 ppm; visual score after 3 weeks; read-out: Pre-emergent % control AMARE
# How it was run: as §1
row,SMILES,pest or weed control at 560 ppm [%]
1,"COC(=O)c1nc(-c2ccc(F)cc2)cc(N)c1Cl [Compound 43, Methyl 4-amino-3-chloro-6-(4-fluorophenyl)pyridine-2-carboxylate]",100
2,"Nc1cc(-c2ccc(Cl)cc2Cl)nc(C(=O)O)c1Cl [Compound 146, 4-Amino-3-chloro-6-(2,4-dichlorophenyl)pyridine-2-carboxylic acid]",100

# Test system: Giant Foxtail (Setaria faberi)
# Test: Preemergence herbicidal activity, soil spray
# Type: in vivo
# Conditions: Setaria faberi, pre-emergence, 504 h, Table 5; rate 560 ppm; visual score after 3 weeks; read-out: Pre-emergent % control SETFA
# How it was run: as §1
row,SMILES,pest or weed control at 560 ppm [%]
1,"COC(=O)c1nc(-c2ccc(F)cc2)cc(N)c1Cl [Compound 43, Methyl 4-amino-3-chloro-6-(4-fluorophenyl)pyridine-2-carboxylate]",98
2,"Nc1cc(-c2ccc(Cl)cc2Cl)nc(C(=O)O)c1Cl [Compound 146, 4-Amino-3-chloro-6-(2,4-dichlorophenyl)pyridine-2-carboxylic acid]",90

# Test system: Lambsquarter (Chenopodium album)
# Test: Preemergence herbicidal activity, soil spray
# Type: in vivo
# Conditions: Chenopodium album, pre-emergence, 504 h; Table 5; rate 560 ppm; visual score after 3 weeks, 100 complete kill or no germination; read-out: Pre-emergent % control CHEAL
# How it was run: as §1
row,SMILES,pest or weed control at 560 ppm [%]
1,"COC(=O)c1nc(-c2ccc(F)cc2)cc(N)c1Cl [Compound 43, Methyl 4-amino-3-chloro-6-(4-fluorophenyl)pyridine-2-carboxylate]",100
2,"Nc1cc(-c2ccc(Cl)cc2Cl)nc(C(=O)O)c1Cl [Compound 146, 4-Amino-3-chloro-6-(2,4-dichlorophenyl)pyridine-2-carboxylic acid]",100

# Test system: Wheat(var. Merica) (Triticum aestivum)
# Test: Postemergence herbicidal activity, selectivity to wheat
# Type: in vivo
# Conditions: post-emergence, 336 h, Table 3, rate 62.5 (unit inferred), crop injury, read-out: Post-emergent % control TRZAS
# Experimental: (§2) Seeds of the desired test plant species were planted in Grace-Sierra MetroMix® 306 planting mixture, which typically has a pH of 6.0 to 6.8 and an organic matter content of about 30 percent, in plastic pots with a surface area of 64 square centimeters. When required to ensure good germination and healthy plants, a fungicide treatment and/or other chemical or physical treatment was applied. The plants were grown for 7-21 days in a greenhouse with an approximate 15 hr photoperiod which was maintained at about 23-29° C. during the day and 22-28° C. during the night. Nutrients and water were added on a regular basis and supplemental lighting was provided with overhead metal halide 1000-Watt lamps as necessary. The plants were employed for testing when they reached the first or second true leaf stage. A weighed amount, determined by the highest rate to be tested, of each test compound was placed in a 20 mL glass vial and was dissolved in 4 mL of a 97:3 v/v (volume/volume) mixture of acetone and dimethyl sulfoxide (DMSO) to obtain concentrated stock solutions. […] The concentrated stock solutions obtained were diluted with an aqueous mixture containing acetone, water, isopropyl alcohol, DMSO, At plus 411 F crop oil concentrate, and Triton X-155 surfactant in a 48.5:39:10:1.5:1.0:0.02 v/v ratio to obtain spray solutions of known concentration. The solutions containing the highest concentration to be tested were prepared by diluting 2 mL aliquots of the stock solution with 13 mL of the mixture and lower concentrations were prepared by serial dilution of the stock solution. Approximately 1.5 mL aliquots of each solution of known concentration were sprayed evenly onto each of the test plant pots using a DeVilbiss atomizer driven by compressed air pressure of […] (140 to 280 kiloPascals) to obtain thorough coverage of each plant. Control plants were sprayed in the same manner with the aqueous mixture. In this test an application rate of 1 ppm results in the application of approximately 1 g/Ha. The treated plants and control plants were placed in a greenhouse as described above and watered by sub-irrigation to prevent wash-off of the test compounds. After 2 weeks the condition of the test plants as compared with that of the untreated plants was determined visually and scored on a scale of 0 to 100 percent where 0 corresponds to no injury and 100 corresponds to complete kill.
row,SMILES,pest or weed control at 62.5 µg/mL [%]
1,"COC(=O)c1nc(-c2ccc(F)cc2)cc(N)c1Cl [Compound 43, Methyl 4-amino-3-chloro-6-(4-fluorophenyl)pyridine-2-carboxylate]",10

# Test system: not given
# Test: not given
# Conditions: not given
row,SMILES,melting point [°C]
1,"COC(=O)c1nc(-c2ccc(F)cc2)cc(N)c1Cl [Compound 43, Methyl 4-amino-3-chloro-6-(4-fluorophenyl)pyridine-2-carboxylate]",125
2,"COC(=O)c1nc(-c2ccc(F)cc2Cl)cc(N)c1Cl [Compound 58, Methyl 4-amino-3-chloro-6-(2-chloro-4-fluorophenyl)pyridine-2-carboxylate]",155 to 157
3,"Nc1cc(-c2ccc(Cl)cc2Cl)nc(C(=O)O)c1Cl [Compound 146, 4-Amino-3-chloro-6-(2,4-dichlorophenyl)pyridine-2-carboxylic acid]",176 to 177

# Test system: Yellow nutsedge (Cyperus esculentus)
# Test: Postemergence herbicidal activity, greenhouse spray
# Type: in vivo
# Conditions: Cyperus, post-emergence, 336 h, Table 1; rate 250 ppm; visual score after 2 weeks; read-out: Post-emergent % control CYPES
# How it was run: (§3)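 Postemergence application by compressed-air atomizer ([…]) onto plants at the 1-2 true leaf stage; rates set by serial dilution of acetone:DMSO stock into the spray carrier. Plants were kept in a greenhouse with ~15 hr photoperiod and sub-irrigated.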
row,SMILES,pest or weed control at 250 ppm [%]
1,"Nc1cc(-c2ccc(Cl)cc2Cl)nc(C(=O)O)c1Cl [Compound 146, 4-Amino-3-chloro-6-(2,4-dichlorophenyl)pyridine-2-carboxylic acid]",98

# Same assay, conditions: Cyperus, post-emergence, 336 h, Table 1; rate 500 ppm; visual score after 2 weeks; read-out: Post-emergent % control CYPES
row,SMILES,pest or weed control at 500 ppm [%]
1,"COC(=O)c1nc(-c2ccc(F)cc2)cc(N)c1Cl [Compound 43, Methyl 4-amino-3-chloro-6-(4-fluorophenyl)pyridine-2-carboxylate]",100
2,"COC(=O)c1nc(-c2ccc(F)cc2Cl)cc(N)c1Cl [Compound 58, Methyl 4-amino-3-chloro-6-(2-chloro-4-fluorophenyl)pyridine-2-carboxylate]",70

# Same assay, conditions: Cyperus, post-emergence, 336 h, Table 2; rate 125 ppm; visual score after 2 weeks; read-out: Post-emergent % control CYPES
row,SMILES,pest or weed control at 125 ppm [%]
1,"Nc1cc(-c2ccc(Cl)cc2Cl)nc(C(=O)O)c1Cl [Compound 146, 4-Amino-3-chloro-6-(2,4-dichlorophenyl)pyridine-2-carboxylic acid]",95

# Test system: Pigweed (redroot) (Amaranthus retroflexus)
# Test: as above
# Type: in vivo
# Conditions: Amaranthus retroflexus, post-emergence, 336 h; Table 3; rate 62.5 (unit inferred); visual score after 2 weeks; read-out: Post-emergent % control AMARE
# How it was run: as §3
row,SMILES,pest or weed control at 62.5 µg/mL [%]
1,"COC(=O)c1nc(-c2ccc(F)cc2)cc(N)c1Cl [Compound 43, Methyl 4-amino-3-chloro-6-(4-fluorophenyl)pyridine-2-carboxylate]",100

# Same assay, conditions: Amaranthus retroflexus, post-emergence, 336 h; Table 4; rate 62.5 (unit inferred); visual score after 2 weeks; read-out: Post-emergent % control AMARE
row,SMILES,pest or weed control at 62.5 µg/mL [%]
1,"COC(=O)c1nc(-c2ccc(F)cc2Cl)cc(N)c1Cl [Compound 58, Methyl 4-amino-3-chloro-6-(2-chloro-4-fluorophenyl)pyridine-2-carboxylate]",100
2,"Nc1cc(-c2ccc(Cl)cc2Cl)nc(C(=O)O)c1Cl [Compound 146, 4-Amino-3-chloro-6-(2,4-dichlorophenyl)pyridine-2-carboxylic acid]",100

# Same assay, conditions: Table 4; rate 62.5 (unit not given); visual score after 2 weeks
row,SMILES,Post-emergent % control AMARE [%]
1,"COC(=O)c1nc(-c2ccc(F)cc2)cc(N)c1Cl [Compound 43, Methyl 4-amino-3-chloro-6-(4-fluorophenyl)pyridine-2-carboxylate]",100

# Test system: Cocklebur (Xanthium strumarium)
# Test: as above
# Type: in vivo
# Conditions: Xanthium strumarium, post-emergence, 336 h; Table 1; rate 250 ppm; visual score after 2 weeks; read-out: Post-emergent % control XANST
# How it was run: as §3
row,SMILES,pest or weed control at 250 ppm [%]
1,"Nc1cc(-c2ccc(Cl)cc2Cl)nc(C(=O)O)c1Cl [Compound 146, 4-Amino-3-chloro-6-(2,4-dichlorophenyl)pyridine-2-carboxylic acid]",100

# Same assay, conditions: Xanthium strumarium, post-emergence, 336 h; Table 1; rate 500 ppm; visual score after 2 weeks, 0 no injury, 100 complete kill; read-out: Post-emergent % control XANST
row,SMILES,pest or weed control at 500 ppm [%]
1,"COC(=O)c1nc(-c2ccc(F)cc2)cc(N)c1Cl [Compound 43, Methyl 4-amino-3-chloro-6-(4-fluorophenyl)pyridine-2-carboxylate]",100
2,"COC(=O)c1nc(-c2ccc(F)cc2Cl)cc(N)c1Cl [Compound 58, Methyl 4-amino-3-chloro-6-(2-chloro-4-fluorophenyl)pyridine-2-carboxylate]",100

# Same assay, conditions: Xanthium strumarium, post-emergence, 336 h; Table 2; rate 125 ppm; visual score after 2 weeks; read-out: Post-emergent % control XANST
row,SMILES,pest or weed control at 125 ppm [%]
1,"Nc1cc(-c2ccc(Cl)cc2Cl)nc(C(=O)O)c1Cl [Compound 146, 4-Amino-3-chloro-6-(2,4-dichlorophenyl)pyridine-2-carboxylic acid]",100

# Test system: Barnyardgrass (Echinochloa crus-galli)
# Test: as above
# Type: in vivo
# Conditions: Echinochloa crus-galli, post-emergence, 336 h, Table 1; rate 250 ppm; visual score after 2 weeks; read-out: Post-emergent % control ECHCG
# How it was run: as §3
row,SMILES,pest or weed control at 250 ppm [%]
1,"Nc1cc(-c2ccc(Cl)cc2Cl)nc(C(=O)O)c1Cl [Compound 146, 4-Amino-3-chloro-6-(2,4-dichlorophenyl)pyridine-2-carboxylic acid]",85

# Same assay, conditions: Echinochloa crus-galli, post-emergence, 336 h, Table 1; rate 500 ppm; visual score after 2 weeks; read-out: Post-emergent % control ECHCG
row,SMILES,pest or weed control at 500 ppm [%]
1,"COC(=O)c1nc(-c2ccc(F)cc2)cc(N)c1Cl [Compound 43, Methyl 4-amino-3-chloro-6-(4-fluorophenyl)pyridine-2-carboxylate]",95
2,"COC(=O)c1nc(-c2ccc(F)cc2Cl)cc(N)c1Cl [Compound 58, Methyl 4-amino-3-chloro-6-(2-chloro-4-fluorophenyl)pyridine-2-carboxylate]",70

# Same assay, conditions: Echinochloa crus-galli, post-emergence, 336 h, Table 2; rate 125 ppm; visual score after 2 weeks; read-out: Post-emergent % control ECHCG
row,SMILES,pest or weed control at 125 ppm [%]
1,"Nc1cc(-c2ccc(Cl)cc2Cl)nc(C(=O)O)c1Cl [Compound 146, 4-Amino-3-chloro-6-(2,4-dichlorophenyl)pyridine-2-carboxylic acid]",75

# Test system: Lambsquarter (Chenopodium album)
# Test: as above
# Type: in vivo
# Conditions: Chenopodium album, post-emergence, 336 h; Table 1; rate 250 ppm; visual score after 2 weeks; read-out: Post-emergent % control CHEAL
# How it was run: as §3
row,SMILES,pest or weed control at 250 ppm [%]
1,"Nc1cc(-c2ccc(Cl)cc2Cl)nc(C(=O)O)c1Cl [Compound 146, 4-Amino-3-chloro-6-(2,4-dichlorophenyl)pyridine-2-carboxylic acid]",100

# Same assay, conditions: Chenopodium album, post-emergence, 336 h; Table 1; rate 500 ppm; visual score after 2 weeks; read-out: Post-emergent % control CHEAL
row,SMILES,pest or weed control at 500 ppm [%]
1,"COC(=O)c1nc(-c2ccc(F)cc2)cc(N)c1Cl [Compound 43, Methyl 4-amino-3-chloro-6-(4-fluorophenyl)pyridine-2-carboxylate]",100
2,"COC(=O)c1nc(-c2ccc(F)cc2Cl)cc(N)c1Cl [Compound 58, Methyl 4-amino-3-chloro-6-(2-chloro-4-fluorophenyl)pyridine-2-carboxylate]",100

# Same assay, conditions: Chenopodium album, post-emergence, 336 h; Table 2; rate 125 ppm; visual score after 2 weeks; read-out: Post-emergent % control CHEAL
row,SMILES,pest or weed control at 125 ppm [%]
1,"Nc1cc(-c2ccc(Cl)cc2Cl)nc(C(=O)O)c1Cl [Compound 146, 4-Amino-3-chloro-6-(2,4-dichlorophenyl)pyridine-2-carboxylic acid]",100

# Test system: Corn (#14 3377) (Zea mays)
# Test: Postemergence herbicidal activity, selectivity to corn
# Type: in vivo
# Conditions: post-emergence, 336 h, Table 4, rate 62.5 (unit inferred), crop injury, read-out: Post-emergent % control ZEAMX
# Experimental: as §2
row,SMILES,pest or weed control at 62.5 µg/mL [%]
1,"COC(=O)c1nc(-c2ccc(F)cc2)cc(N)c1Cl [Compound 43, Methyl 4-amino-3-chloro-6-(4-fluorophenyl)pyridine-2-carboxylate]",0
2,"COC(=O)c1nc(-c2ccc(F)cc2Cl)cc(N)c1Cl [Compound 58, Methyl 4-amino-3-chloro-6-(2-chloro-4-fluorophenyl)pyridine-2-carboxylate]",0
3,"Nc1cc(-c2ccc(Cl)cc2Cl)nc(C(=O)O)c1Cl [Compound 146, 4-Amino-3-chloro-6-(2,4-dichlorophenyl)pyridine-2-carboxylic acid]",0
